Here are results for 22 compounds from article PMC9974930 (Journal of medicinal chemistry, 2023).

The structures appear in SMILES notation.

This data set deals with T1, recombinant human sEH (HsEH) (Homo sapiens, UniProt P34913).
T1 sequence (P34913 1-555): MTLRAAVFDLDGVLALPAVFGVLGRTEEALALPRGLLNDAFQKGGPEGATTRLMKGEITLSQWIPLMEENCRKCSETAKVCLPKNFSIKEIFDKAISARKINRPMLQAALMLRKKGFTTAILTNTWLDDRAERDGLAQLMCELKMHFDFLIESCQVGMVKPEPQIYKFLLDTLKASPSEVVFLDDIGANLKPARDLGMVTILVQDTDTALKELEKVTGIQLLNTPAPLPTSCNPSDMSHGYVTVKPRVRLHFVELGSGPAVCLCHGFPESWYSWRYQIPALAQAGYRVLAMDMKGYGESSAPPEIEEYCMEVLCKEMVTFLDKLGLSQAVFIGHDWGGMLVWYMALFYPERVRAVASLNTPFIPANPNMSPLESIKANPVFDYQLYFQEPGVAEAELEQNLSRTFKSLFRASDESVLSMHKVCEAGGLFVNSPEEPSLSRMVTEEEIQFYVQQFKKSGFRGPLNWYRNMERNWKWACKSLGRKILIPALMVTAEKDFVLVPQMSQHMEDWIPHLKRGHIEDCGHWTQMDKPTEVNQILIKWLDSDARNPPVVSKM
Put plainly: biochemical. The settings on record: for LLE (ligand lipophilicity efficiency): LLE = pIC50-cLogP.

As for `C[C@]12C[C@@H]3C[C@](C)(C1)C[C@@](NC(=O)Nc1ccc(CN4CCCC(C(=O)N5CCN(CCO)CC5)C4)cc1F)(C3)C2` (stereo partly drawn) [D9, 1-((1r,3R,5S,7r)-3,5-Dimethyladamantan-1-yl)-3-(2-fluoro-4-((3-(4-(2-hydroxyethyl)piperazine-1-carbonyl)piperidin-1-yl)methyl)phenyl)urea], the “LLE (ligand lipophilicity efficiency)” value is 5.790.
As to `C[C@]12C[C@@H]3C[C@](C)(C1)C[C@@](NC(=O)Nc1ccc(CN4CCCC(C(=O)O)C4)cc1F)(C3)C2` (stereo partly drawn) [D, 1-(4-(3-((1r,3R,5S,7r)-3,5-Dimethyladamantan-1-yl)ureido)-3-fluorobenzyl) piperidine-3-carboxylic acid], the “LLE (ligand lipophilicity efficiency)” value is given as 7.656.
On to `C[C@]12C[C@@H]3C[C@](C)(C1)C[C@@](NC(=O)Nc1ccc(CN4CCC(C(N)=O)CC4)cc1F)(C3)C2` [E1, 1-(4-(3-((1r,7r)-3,5-Dimethyladamantan-1-yl)ureido)-3-fluorobenzyl)piperidine-4-carboxamide], for which the “LLE (ligand lipophilicity efficiency)” value stood at 5.557.
Take `CC(O)CNC(=O)C1CCN(Cc2ccc(NC(=O)N[C@@]34C[C@@H]5C[C@@](C)(C[C@@](C)(C5)C3)C4)c(F)c2)CC1` (some centres unmarked) [E2, 1-(4-(3-((1r,7r)-3,5-Dimethyladamantan-1-yl)ureido)-3-fluorobenzyl)-N-(2-hydroxypropyl)piperidine-4-carboxamide]: the “LLE (ligand lipophilicity efficiency)” value was 3.267.
The same measure, in the same setting: to `C[C@]12C[C@@H]3C[C@](C)(C1)C[C@@](NC(=O)Nc1ccc(CN4CCC(C(=O)NC(CO)CO)CC4)cc1F)(C3)C2` [E3, N-(1,3-Dihydroxypropan-2-yl)-1-(4-(3-((1r,7r)-3,5-dimethyladamantan-1-yl)ureido)-3-fluorobenzyl)piperidine-4-carboxamide] belongs 5.090; to `C[C@]12C[C@@H]3C[C@](C)(C1)C[C@@](NC(=O)Nc1ccc(CN4CCC(C(=O)NC(CO)(CO)CO)CC4)cc1F)(C3)C2` [E4, N-(1,3-Dihydroxy-2-(hydroxymethyl)propan-2-yl)-1-(4-(3-((1r,7r)-3,5-dimethyladamantan-1-yl)ureido)-3-fluorobenzyl)piperidine-4-carboxamide], 6.459; to `C[C@]12C[C@@H]3C[C@](C)(C1)C[C@@](NC(=O)Nc1ccc(CN4CCC(C(=O)N(CCO)CCO)CC4)cc1F)(C3)C2` [E5, 1-(4-(3-((1r,7r)-3,5-Dimethyladamantan-1-yl)ureido)-3-fluorobenzyl)-N,N-bis(2-hydroxyethyl)piperidine-4-carboxamide], 5.585.
In the case of `CC(=O)N1CCCN(C(=O)C2CCCN(C(=O)c3ccc(NC(=O)N[C@@]45C[C@@H]6C[C@@](C)(C[C@@](C)(C6)C4)C5)c(F)c3)C2)CC1` (stereo partly drawn) [F1, 1-(4-(3-(4-Acetyl-1,4-diazepane-1-carbonyl)piperidine-1-carbonyl)-2-fluorophenyl)-3-((1r,3R,5S,7r)-3,5-dimethyladamantan-1-yl)urea], the “LLE (ligand lipophilicity efficiency)” value was determined as 6.801.
On the same count and under the same terms, to `CCC(=O)N1CCCN(C(=O)C2CCCN(C(=O)c3ccc(NC(=O)N[C@@]45C[C@@H]6C[C@@](C)(C[C@@](C)(C6)C4)C5)c(F)c3)C2)CC1` (stereo partly drawn) [F2, 1-((1r,3R,5S,7r)-3,5-Dimethyladamantan-1-yl)-3-(2-fluoro-4-(3-(4-propionyl-1,4-diazepane-1-carbonyl)piperidine-1-carbonyl)phenyl)urea] belongs 6.164; to `CCC(C)C(=O)N1CCCN(C(=O)C2CCCN(C(=O)c3ccc(NC(=O)N[C@@]45C[C@@H]6C[C@@](C)(C[C@@](C)(C6)C4)C5)c(F)c3)C2)CC1` (stereo partly drawn) [F3, 1-((1r,3R,5S,7r)-3,5-Dimethyladamantan-1-yl)-3-(2-fluoro-4-(3-(4-(2-methylbutanoyl) −1,4-diazepane-1-carbonyl)piperidine-1-carbonyl)phenyl)urea], 4.847; to `CCC(C)C(=O)N1CCCN(C(=O)C2CCCN(Cc3ccc(NC(=O)N[C@@]45C[C@@H]6C[C@@](C)(C[C@@](C)(C6)C4)C5)c(F)c3)C2)CC1` (stereo partly drawn) [G2, 1-((1r,3R,5S,7r)-3,5-Dimethyladamantan-1-yl)-3-(2-fluoro-4-((3-(4-(2-methylbutanoyl) −1,4-diazepane-1-carbonyl)piperidin-1-yl)methyl)phenyl)urea], 4.986.
Take `C=CC(=O)N1CCCN(C(=O)C2CCCN(Cc3ccc(NC(=O)N[C@@]45C[C@@H]6C[C@@](C)(C[C@@](C)(C6)C4)C5)c(F)c3)C2)CC1` (stereo partly drawn) [G3, 1-(4-((3-(4-acryloyl-1,4-Diazepane-1-carbonyl)piperidin-1-yl)methyl)-2-fluorophenyl) −3-((1r,3R,5S,7r)-3,5-dimethyladamantan-1-yl)urea]: the “LLE (ligand lipophilicity efficiency)” value is on record as 5.598.
Still for that read-out and setting: the same measure for `C=C(C)C(=O)N1CCCN(C(=O)C2CCCN(Cc3ccc(NC(=O)N[C@@]45C[C@@H]6C[C@@](C)(C[C@@](C)(C6)C4)C5)c(F)c3)C2)CC1` (stereo partly drawn) [G4, 1-((1r,3R,5S,7r)-3,5-Dimethyladamantan-1-yl)-3-(2-fluoro-4-((3-(4-methacryloyl-1,4-diazepane-1-carbonyl)piperidin-1-yl)methyl)phenyl)urea]: 4.821; for `CCC(=O)N1CCC(CC(=O)N2CCCN(C(=O)c3ccc(NC(=O)N[C@@]45C[C@@H]6C[C@@](C)(C[C@@](C)(C6)C4)C5)c(F)c3)CC2)CC1` [H1, 1-((1r,3R,5S,7r)-3,5-Dimethyladamantan-1-yl)-3-(2-fluoro-4-(4-(2-(1-propionylpiperidin-4-yl)acetyl)-1,4-diazepane-1-carbonyl)phenyl)urea]: 5.848; for `C=C(C)C(=O)N1CCC(CC(=O)N2CCCN(C(=O)c3ccc(NC(=O)N[C@@]45C[C@@H]6C[C@@](C)(C[C@@](C)(C6)C4)C5)cc3)CC2)CC1` [H3, 1-((1r,3R,5S,7r)-3,5-Dimethyladamantan-1-yl)-3-(4-(4-(2-(1-methacryloylpiperidin-4-yl)acetyl)-1,4-diazepane-1-carbonyl)phenyl)urea]: 5.530.
Consider `CC(CN(C)C)N1CCC(CC(=O)N2CCCN(C(=O)c3ccc(NC(=O)N[C@@]45C[C@@H]6C[C@@](C)(C[C@@](C)(C6)C4)C5)c(F)c3)CC2)CC1` (stereo partly drawn) [H4, 1-((1r,3R,5S,7r)-3,5-Dimethyladamantan-1-yl)-3-(4-(4-(2-(1-(1-(dimethylamino)propan-2-yl)piperidin-4-yl)acetyl)-1,4-diazepane-1-carbonyl)-2-fluorophenyl)urea], for which the “LLE (ligand lipophilicity efficiency)” value is recorded as 3.920.
For `CC(=O)N1CCC(CC(=O)N2CCCN(Cc3ccc(NC(=O)N[C@@]45C[C@@H]6C[C@@](C)(C[C@@](C)(C6)C4)C5)c(F)c3)CC2)CC1` [I1, 1-(4-((4-(2-(1-Acetylpiperidin-4-yl)acetyl)-1,4-diazepan-1-yl)methyl)-2-fluorophenyl)-3-((1r,3R,5S,7r)-3,5-dimethyladamantan-1-yl)urea], the “LLE (ligand lipophilicity efficiency)” value amounted to 6.119.
As for `CCC(=O)N1CCC(CC(=O)N2CCCN(Cc3ccc(NC(=O)N[C@@]45C[C@@H]6C[C@@](C)(C[C@@](C)(C6)C4)C5)c(F)c3)CC2)CC1` [I2, 1-((1r,3R,5S,7r)-3,5-Dimethyladamantan-1-yl)-3-(2-fluoro-4-((4-(2-(1-propionylpiperidin-4-yl)acetyl)-1,4-diazepan-1-yl)methyl)phenyl)urea], the IC50 was 0.35 nM and the “LLE (ligand lipophilicity efficiency)” value came to 5.623.
`CCC(C)C(=O)N1CCC(CC(=O)N2CCCN(Cc3ccc(NC(=O)N[C@@]45C[C@@H]6C[C@@](C)(C[C@@](C)(C6)C4)C5)c(F)c3)CC2)CC1` (stereo partly drawn) [I3, 1-((1r,3R,5S,7r)-3,5-Dimethyladamantan-1-yl)-3-(2-fluoro-4-((4-(2-(1-(2-methylbutanoyl)piperidin-4-yl)acetyl)-1,4-diazepan-1-yl)methyl)phenyl)urea]: the “LLE (ligand lipophilicity efficiency)” value is 4.337.
Same read-out and setting: the same measure for `COC(=O)N1CCC(CC(=O)N2CCCN(Cc3ccc(NC(=O)N[C@@]45C[C@@H]6C[C@@](C)(C[C@@](C)(C6)C4)C5)c(F)c3)CC2)CC1` [I4, Methyl-4-(2-(4-(4-(3-((1r,3R,5S,7r)-3,5-dimethyladamantan-1-yl)ureido)-3-fluorobenzyl)-1,4-diazepan-1-yl)-2-oxoethyl)piperidine-1-carboxylate]: 5.125; for `C[C@]12C[C@@H]3C[C@](C)(C1)C[C@@](NC(=O)Nc1ccc(CN4CCCN(C(=O)CC5CCN(CCO)CC5)CC4)cc1F)(C3)C2` [I5, 1-((1r,3R,5S,7r)-3,5-Dimethyladamantan-1-yl)-3-(2-fluoro-4-((4-(2-(1-(2-hydroxyethyl)piperidin-4-yl)acetyl)-1,4-diazepan-1-yl)methyl)phenyl)urea]: 4.937; for `CN(C)CCN1CCC(CC(=O)N2CCCN(Cc3ccc(NC(=O)N[C@@]45C[C@@H]6C[C@@](C)(C[C@@](C)(C6)C4)C5)c(F)c3)CC2)CC1` [I7, 1-((1r,3R,5S,7r)-3,5-Dimethyladamantan-1-yl)-3-(4-((4-(2-(1-(2-(dimethylamino)ethyl)piperidin-4-yl)acetyl)-1,4-diazepan-1-yl)methyl)-2-fluorophenyl)urea]: 4.517.
